In patent publication US20170000749A1, “Methods for Treating Cognitive Disorders Using Inhibitors of Histone Deacetylase” (Forum Pharmaceuticals, Inc., priority 2008, published 2017):
Like-named read-outs stand apart in the source and are kept apart here.

Experiments:
[1] = system: HDAC activity in primary mouse cortical cultures; assay: Whole-Cell Histone Deacetylase (HDAC) Inhibition Assay in Primary Mouse Cortical Cultures; assay type: cell-based; conditions: whole-cell (WC), mouse cortical neurons, read-out: HDAC Inhibition (IC50 μM) WC mouse cortical neurons
In short: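 Primary neocortical neurons from E17 Balb/C mouse embryos were plated at 50000 cells/well and treated at DIV9 with ten-point DMSO dilutions for 16-18 h at 37° C, in triplicate. BOC-Lys(Ac)-AMC substrate was then added for 1 h. Fluor de Lys developer containing 1 uM TSA produced a fluorophore, which was read.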

[2] = molecular target: one or more of HDAC-1, HDAC-2, HDAC-3, HDAC-4, HDAC-5, HDAC-6, HDAC-7, HDAC-8, HDAC-9, HDAC-10 and HDAC-11; assay: Inhibition of Histone Deacetylase Enzymatic Activity (Boc-Lys(Ac)-AMC substrate, Fluor-de-Lys developer); assay type: biochemical; conditions: read-out: HDAC Inhibition (IC50 μM) HDAC Enzyme
Procedure: The following protocol is used to assay the compounds of the disclosure.
The mixture is pre-incubated for 5 minutes at room temperature. The reaction is started by bringing the temperature to 37° C. and adding 16 μl substrate. Total reaction volume is 50 μl.
In the Tables 8, 9 and 10, A≦0.05 μM; 0.05 μM<B≦0.1 μM; 0.1 μM<C≦1 μM; and 1 μM<D≦10 μM.

IC50 ([1]; Table 9) [µM] | IC50 ([2]; Table 9) [µM] | SMILES | also measured
 |  | O=C(NO)c1cnc(N2CCn3c(nnc3-c3ccccc3)C2)nc1 [N-hydroxy-2-(3-phenyl-5,6-dihydro-[1,2,4]triazolo[4,3-a]pyrazin-7(8H)-yl)pyrimidine-5-carboxamide] | IC50 ([1]; Table 10): 1 to 5 µM; IC50 ([2]; Table 10): < 0.05 µM
 |  | O=C(Cc1ccc(CN2C(=O)c3ccccc3Oc3ccccc32)cc1)NO [N-hydroxy-2-(4-((11-oxodibenzo[b,f][1,4]oxazepin-10(11H)-yl)methyl)phenyl)acetamide] | IC50 ([1]; Table 10): 1 to 5 µM; IC50 ([2]; Table 10): 0.1 to 1 µM
> 15 | 0.1 to 1 | O=C(NO)c1cnc(N2CC3CC(CN(c4cc(C(F)(F)F)ccn4)C3)C2)nc1 [N-hydroxy-2-(7-(4-(trifluoromethyl)pyridin-2-yl)-3,7-diazabicyclo[3.3.1]nonan-3-yl)pyrimidine-5-carboxamide] | 
< 1 | < 0.05 | O=C(NO)c1cnc(N2C[C@H]3C[C@@H]2CN3c2cc(C(F)(F)F)ccn2)nc1 [N-hydroxy-2-((1R,4R)-5-(4-(trifluoromethyl)pyridin-2-yl)-2,5-diazabicyclo[2.2.1]heptan-2-yl)pyrimidine-5-carboxamide] | 
< 1 | 0.05 to 0.1 | Cc1cccc(N2C[C@H]3C[C@@H]2CN3c2ncc(C(=O)NO)cn2)c1 [N-hydroxy-2-((1R,4R)-5-m-tolyl-2,5-diazabicyclo[2.2.1]heptan-2-yl)pyrimidine-5-carboxamide] | 
< 1 | < 0.05 | Cc1ccc(N2C[C@H]3C[C@@H]2CN3c2ncc(C(=O)NO)cn2)cc1 [N-hydroxy-2-((1R,4R)-5-p-tolyl-2,5-diazabicyclo[2.2.1]heptan-2-yl)pyrimidine-5-carboxamide] | 
1 to 5 | 0.1 to 1 | O=C(NO)c1cnc(N2C[C@@H]3C[C@H]2CN3c2ccccc2C(F)(F)F)nc1 [N-hydroxy-2-((1S,4S)-5-(2-(trifluoromethyl)phenyl)-2,5-diazabicyclo[2.2.1]heptan-2-yl)pyrimidine-5-carboxamide] | 
< 1 | < 0.05 | O=C(NO)c1cnc(N2C[C@@H]3C[C@H]2CN3c2cc(C(F)(F)F)nc3ccccc23)nc1 [N-hydroxy-2-((1S,4S)-5-(2-(trifluoromethyl)quinolin-4-yl)-2,5-diazabicyclo[2.2.1]heptan-2-yl)pyrimidine-5-carboxamide] | 
< 1 | < 0.05 | O=C(NO)c1cnc(N2C[C@@H]3C[C@H]2CN3c2cccc(OC(F)(F)F)c2)nc1 [N-hydroxy-2-((1S,4S)-5-(3-(trifluoromethoxy)phenyl)-2,5-diazabicyclo[2.2.1]heptan-2-yl)pyrimidine-5-carboxamide] | 
1 to 5 | 0.05 to 0.1 | O=C(NO)c1cnc(N2C[C@@H]3C[C@H]2CN3C(=O)c2cccc(C(F)(F)F)c2)nc1 [N-hydroxy-2-((1S,4S)-5-(3-(trifluoromethyl)benzoyl)-2,5-diazabicyclo[2.2.1]heptan-2-yl)pyrimidine-5-carboxamide] | 
< 1 | < 0.05 | O=C(NO)c1cnc(N2C[C@@H]3C[C@H]2CN3c2cccc(C(F)(F)F)c2)nc1 [N-hydroxy-2-((1S,4S)-5-(3-(trifluoromethyl)phenyl)-2,5-diazabicyclo[2.2.1]heptan-2-yl)pyrimidine-5-carboxamide] | 
1 to 5 | < 0.05 | O=C(NO)c1cnc(N2C[C@@H]3C[C@H]2CN3c2cccc(C(F)(F)F)c2)s1 [N-hydroxy-2-((1S,4S)-5-(3-(trifluoromethyl)phenyl)-2,5-diazabicyclo[2.2.1]heptan-2-yl)thiazole-5-carboxamide] | 
1 to 5 | < 0.05 | O=C(NO)c1cnc(N2C[C@@H]3C[C@H]2CN3c2cccc(SC(F)(F)F)c2)nc1 [N-hydroxy-2-((1S,4S)-5-(3-(trifluoromethylthio)phenyl)-2,5-diazabicyclo[2.2.1]heptan-2-yl)pyrimidine-5-carboxamide] | 
< 1 | < 0.05 | COc1cccc(N2C[C@@H]3C[C@H]2CN3c2ncc(C(=O)NO)cn2)c1 [N-hydroxy-2-((1S,4S)-5-(3-methoxyphenyl)-2,5-diazabicyclo[2.2.1]heptan-2-yl)pyrimidine-5-carboxamide] | 
1 to 5 | < 0.05 | O=C(NO)c1cnc(N2C[C@@H]3C[C@H]2CN3c2ccc(C(F)(F)F)cc2)nc1 [N-hydroxy-2-((1S,4S)-5-(4-(trifluoromethyl)phenyl)-2,5-diazabicyclo[2.2.1]heptan-2-yl)pyrimidine-5-carboxamide] | 
< 1 | < 0.05 | O=C(NO)c1cnc(N2C[C@@H]3C[C@H]2CN3c2cc(C(F)(F)F)ccn2)nc1 [N-hydroxy-2-((1S,4S)-5-(4-(trifluoromethyl)pyridin-2-yl)-2,5-diazabicyclo[2.2.1]heptan-2-yl)pyrimidine-5-carboxamide] | 
< 1 | < 0.05 | O=C(NO)c1cnc(N2C[C@@H]3C[C@H]2CN3c2nccc(C(F)(F)F)n2)nc1 [N-hydroxy-2-((1S,4S)-5-(4-(trifluoromethyl)pyrimidin-2-yl)-2,5-diazabicyclo[2.2.1]heptan-2-yl)pyrimidine-5-carboxamide] | 

IC50 ([1]; Table 9) [µM] | IC50 ([2]; Table 9) [µM] | SMILES | also measured
< 1 | < 0.05 | O=C(NO)c1cnc(N2C[C@@H]3C[C@H]2CN3c2cncc(C(F)(F)F)c2)nc1 [N-hydroxy-2-((1S,4S)-5-(5-(trifluoromethyl)pyridin-3-yl)-2,5-diazabicyclo[2.2.1]heptan-2-yl)pyrimidine-5-carboxamide] | 
< 1 | < 0.05 | O=C(NO)c1cnc(N2C[C@@H]3C[C@H]2CN3c2cccc(C(F)(F)F)n2)nc1 [N-hydroxy-2-((1S,4S)-5-(6-(trifluoromethyl)pyridin-2-yl)-2,5-diazabicyclo[2.2.1]heptan-2-yl)pyrimidine-5-carboxamide] | 
< 1 | 0.05 to 0.1 | O=C(NO)c1cnc(N2C[C@@H]3C[C@H]2CN3C(=O)N2CCCC2)nc1 [N-hydroxy-2-((1S,4S)-5-(pyrrolidine-1-carbonyl)-2,5-diazabicyclo[2.2.1]heptan-2-yl)pyrimidine-5-carboxamide] | 
< 1 | < 0.05 | Cc1cccc(N2C[C@@H]3C[C@H]2CN3c2ncc(C(=O)NO)cn2)c1 [N-hydroxy-2-((1S,4S)-5-m-tolyl-2,5-diazabicyclo[2.2.1]heptan-2-yl)pyrimidine-5-carboxamide] | 
1 to 5 | 0.05 to 0.1 | Cc1ccccc1N1C[C@@H]2C[C@H]1CN2c1ncc(C(=O)NO)cn1 [N-hydroxy-2-((1S,4S)-5-o-tolyl-2,5-diazabicyclo[2.2.1]heptan-2-yl)pyrimidine-5-carboxamide] | 
< 1 | < 0.05 | Cc1ccc(N2C[C@@H]3C[C@H]2CN3c2ncc(C(=O)NO)cn2)cc1 [N-hydroxy-2-((1S,4S)-5-p-tolyl-2,5-diazabicyclo[2.2.1]heptan-2-yl)pyrimidine-5-carboxamide] | 
< 1 | 0.05 to 0.1 | O=C(NO)c1cnc(N2C[C@@H]3C[C@H]2CN3c2ccccc2)nc1 [N-hydroxy-2-((1S,4S)-5-phenyl-2,5-diazabicyclo[2.2.1]heptan-2-yl)pyrimidine-5-carboxamide] | 
 |  | O=C(CCn1cc(CN2C(=O)c3ccccc3Oc3ccccc32)nn1)NO [N-hydroxy-3-(4-((11-oxodibenzo[b,f][1,4]oxazepin-10(11H)-yl)methyl)-1H-1,2,3-triazol-1-yl)propanamide] | IC50 ([1]; Table 10): 1 to 5 µM; IC50 ([2]; Table 10): 0.1 to 1 µM
 |  | O=C(CCc1ccc(CN2C(=O)c3ccccc3Oc3ccccc32)cc1)NO [N-hydroxy-3-(4-((11-oxodibenzo[b,f][1,4]oxazepin-10(11H)-yl)methyl)phenyl)propanamide] | IC50 ([1]; Table 10): 1 to 5 µM; IC50 ([2]; Table 10): 0.1 to 1 µM
 |  | O=C(NO)c1ccc(C#CCN2C(=O)c3ccccc3Oc3ccccc32)cc1 [N-hydroxy-4-(3-(11-oxodibenzo[b,f][1,4]oxazepin-10(11H)-yl)prop-1-ynyl)benzamide] | IC50 ([1]; Table 10): 1 to 5 µM; IC50 ([2]; Table 10): < 0.05 µM
 |  | O=C(NO)c1ccc(CCCN2C(=O)c3ccccc3Oc3ccccc32)cc1 [N-hydroxy-4-(3-(11-oxodibenzo[b,f][1,4]oxazepin-10(11H)-yl)propyl)benzamide] | IC50 ([1]; Table 10): < 1 µM; IC50 ([2]; Table 10): 0.05 to 0.1 µM
1 to 5 | 0.1 to 1 | COc1cccc(N2CC3CC2CN3c2ccc(C(=O)NO)cc2)c1 (stereo not drawn) [N-hydroxy-4-(5-(3-methoxyphenyl)-2,5-diazabicyclo[2.2.1]heptan-2-yl)benzamide] | 
1 to 5 | 0.1 to 1 | Cc1cccc(N2CC3CC2CN3c2ccc(C(=O)NO)cc2)c1 (stereo not drawn) [N-hydroxy-4-(5-m-tolyl-2,5-diazabicyclo[2.2.1]heptan-2-yl)benzamide] | 
 |  | CN1c2ccccc2Oc2ccccc2C1c1ccc(C(=O)NO)cc1 (stereo not drawn) [N-hydroxy-4-(10-methyl-10,11-dihydrodibenzo[b,f][1,4]oxazepin-11-yl)benzamide] | IC50 ([1]; Table 8): 5 to 15 µM; IC50 ([2]; Table 8): 0.1 to 1 µM
 |  | O=C(NO)c1ccc(N2C(=O)c3ccccc3Oc3ccccc32)cc1 [N-hydroxy-4-(11-oxodibenzo[b,f][1,4]oxazepin-10(11H)-yl)benzamide] | IC50 ([1]; Table 10): > 15 µM; IC50 ([2]; Table 10): 0.1 to 1 µM
5 to 15 | 1 to 10 | O=C(NO)c1ccc(N2C[C@H]3C[C@@H]2CN3c2cc(C(F)(F)F)ccn2)cc1 [N-hydroxy-4-((1R,4R)-5-(4-(trifluoromethyl)pyridin-2-yl)-2,5-diazabicyclo[2.2.1]heptan-2-yl)benzamide] | 
